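Each compound was tested at five concentrations against cells in 96-well plates for 48 hours. GI50 = concentration required for 50% inhibition of growth. Definition used: TGI = concentration required for complete inhibition of growth.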
Columns and labels:
Test in all cases: NCI anticancer screen, dose series, 48 h
[1] = test system: NCI-H23 lung
[2] = test system: NCI-H460 lung
[3] = test system: NCI-H522 lung
[4] = test system: NCI/ADR-RES ovarian
[5] = test system: OVCAR-3 ovarian
[6] = test system: OVCAR-4 ovarian
[7] = test system: OVCAR-5 ovarian
[8] = test system: OVCAR-8 ovarian
[9] = test system: PC-3 prostate
[10] = test system: RPMI-8226 leukemia
[11] = test system: RXF 393 renal
[12] = test system: SF-268 CNS
[13] = test system: SF-295 CNS
[14] = test system: SF-539 CNS
[15] = test system: SK-MEL-2 melanoma
[16] = test system: SK-MEL-28 melanoma
[17] = test system: SK-MEL-5 melanoma
[18] = test system: SK-OV-3 ovarian
[19] = test system: SN12C renal
[20] = test system: SNB-19 CNS
[21] = test system: SNB-75 CNS
[22] = test system: SR leukemia
[23] = test system: SW-620 colon
[24] = test system: T-47D breast
[25] = test system: TK-10 renal
[26] = test system: U251 CNS
[27] = test system: UACC-257 melanoma
[28] = test system: UACC-62 melanoma
[29] = test system: UO-31 renal

Q: `CCCCCCCC(=O)SCC/C=C/[C@@H]1CC(=O)NCc2cccc(n2)CN(Cc2ccc(Cl)cc2)CC(=O)N[C@@H](C(C)C)C(=O)O1` was tested. Which GI50 [1] did it give?
A: 13.7 µM

Q: And the TGI [1]?
A: > 100 µM

Q: What about the GI50 [2] of the same compound?
A: 5.45 µM

Q: What about the TGI [2] of the same compound?
A: > 100 µM

Q: And the GI50 [3]?
A: 6.82 µM

Q: What about the TGI [3] of the same compound?
A: 54.1 µM

Q: And the GI50 [4]?
A: 11.4 µM

Q: And the TGI [4]?
A: > 100 µM

Q: What about the GI50 [5] of the same compound?
A: 13.1 µM

Q: What about the TGI [5] of the same compound?
A: 49.4 µM

Q: What about the GI50 [6] of the same compound?
A: 21.7 µM

Q: And the TGI [6]?
A: > 100 µM

Q: And the GI50 [7]?
A: 9.98 µM

Q: What about the TGI [7] of the same compound?
A: > 100 µM

Q: And the GI50 [8]?
A: 9.1 µM

Q: And the TGI [8]?
A: > 100 µM

Q: What about the GI50 [9] of the same compound?
A: 15.9 µM

Q: And the TGI [9]?
A: > 100 µM

Q: And the GI50 [10]?
A: 46.4 µM

Q: What about the TGI [10] of the same compound?
A: > 100 µM

Q: What about the GI50 [11] of the same compound?
A: 5.9 µM

Q: And the TGI [11]?
A: 44 µM

Q: What about the GI50 [12] of the same compound?
A: 20 µM

Q: What about the TGI [12] of the same compound?
A: > 100 µM

Q: What about the GI50 [13] of the same compound?
A: 4.45 µM

Q: And the TGI [13]?
A: 20.3 µM

Q: And the GI50 [14]?
A: 16.3 µM

Q: What about the TGI [14] of the same compound?
A: > 100 µM

Q: What about the GI50 [15] of the same compound?
A: 13.3 µM

Q: What about the TGI [15] of the same compound?
A: > 100 µM

Q: What about the GI50 [16] of the same compound?
A: 5.04 µM

Q: And the TGI [16]?
A: > 100 µM

Q: And the GI50 [17]?
A: 5.26 µM

Q: And the TGI [17]?
A: 17.6 µM

Q: What about the GI50 [18] of the same compound?
A: 6.41 µM

Q: And the TGI [18]?
A: 42.7 µM

Q: And the GI50 [19]?
A: 22.8 µM

Q: What about the TGI [19] of the same compound?
A: > 100 µM

Q: What about the GI50 [20] of the same compound?
A: 22.6 µM

Q: And the TGI [20]?
A: > 100 µM

Q: What about the GI50 [21] of the same compound?
A: 5.74 µM

Q: And the TGI [21]?
A: > 100 µM

Q: What about the GI50 [22] of the same compound?
A: 3.64 µM

Q: And the TGI [22]?
A: > 100 µM

Q: And the GI50 [23]?
A: 18 µM

Q: What about the TGI [23] of the same compound?
A: > 100 µM

Q: What about the GI50 [24] of the same compound?
A: 29.3 µM

Q: What about the TGI [24] of the same compound?
A: 98.7 µM

Q: And the GI50 [25]?
A: 2.81 µM

Q: What about the TGI [25] of the same compound?
A: 23.6 µM

Q: And the GI50 [26]?
A: 12.6 µM

Q: And the TGI [26]?
A: 35.8 µM

Q: And the GI50 [27]?
A: 8.99 µM

Q: What about the TGI [27] of the same compound?
A: 70.4 µM

Q: What about the GI50 [28] of the same compound?
A: 5.85 µM

Q: What about the TGI [28] of the same compound?
A: 26.5 µM

Q: And the GI50 [29]?
A: 6.27 µM

Q: And the TGI [29]?
A: 48.9 µM

Source: PubChem BioAssay (NCI)
